In patent publication US20260297070A1, “CYCLIC [COMPOUND LEFT OUT] WRN INHIBITORS” (Nimbus Wadjet, Inc., priority 2023, published 2026):

target: T1, human Werner helicase (WRN-BV08, Uniprot Q14191, amino acids 517-1235 with L1074F point mutation) (Homo sapiens, UniProt Q14191, L1074F); assay: WRN (BV08) ADP-Glo Assay; format: biochemical; details: 0.15 nM WRN, 5 μM ATP, 0.1 nM DNA duplex, 15 min preincubation, 60 min at 25° C., pH 7.5, 1% DMSO; read-out: ADP-Glo_hWRN_IC50
T1 construct: Uniprot Q14191, amino acids 517-1235 with L1074F point mutation; TEV-cleavable 8×His (C, cleaved yes); made in house; host or cells: Sf9 insect cells (baculovirus)
Outline: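 ADP produced by WRN helicase fragment 517-1235 (L1074F, baculovirus/Sf9, untagged) read by ADP-Glo luminescence after 60 min at 25 °C with 5 μM ATP and 0.1 nM duplex DNA, following 15 min compound preincubation. Final enzyme 0.15 nM in Bicine pH 7.5 buffer, 1% DMSO; 20 μM NSC-617145 defined full inhibition.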

T1 sequence (Q14191 with tags, fused parts or gaps L1074F limits assumed): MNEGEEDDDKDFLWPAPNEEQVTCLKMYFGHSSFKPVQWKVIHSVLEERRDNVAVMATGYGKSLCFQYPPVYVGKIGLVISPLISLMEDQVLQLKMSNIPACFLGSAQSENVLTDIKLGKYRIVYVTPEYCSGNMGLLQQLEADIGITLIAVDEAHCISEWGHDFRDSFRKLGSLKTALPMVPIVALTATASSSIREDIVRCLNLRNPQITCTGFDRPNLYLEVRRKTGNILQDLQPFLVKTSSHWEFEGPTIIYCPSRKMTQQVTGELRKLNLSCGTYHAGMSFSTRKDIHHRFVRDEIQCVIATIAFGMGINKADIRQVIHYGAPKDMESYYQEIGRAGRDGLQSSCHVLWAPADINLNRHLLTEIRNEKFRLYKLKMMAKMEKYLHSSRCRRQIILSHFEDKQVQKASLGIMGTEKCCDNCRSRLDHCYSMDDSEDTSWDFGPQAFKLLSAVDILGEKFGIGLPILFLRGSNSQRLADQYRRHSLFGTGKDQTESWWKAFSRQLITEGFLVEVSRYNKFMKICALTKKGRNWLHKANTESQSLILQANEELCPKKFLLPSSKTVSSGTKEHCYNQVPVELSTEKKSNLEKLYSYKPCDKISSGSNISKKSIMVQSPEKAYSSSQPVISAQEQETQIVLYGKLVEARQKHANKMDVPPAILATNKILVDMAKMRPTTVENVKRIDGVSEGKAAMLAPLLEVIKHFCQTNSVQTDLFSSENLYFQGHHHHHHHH

IC50, > 50 µM:
CC(C)(C)OC(=O)NC(C(=O)N(Cc1ccccc1)C1C=CS(=O)(=O)C1)c1ccc(-n2cccc2)cc1 (stereo not shown) [I-535, tert-butyl N-{[benzyl(1,1-dioxo-2,3-dihydro-1lambda6-thiophen-3-yl)carbamoyl][4-(1H-pyrrol-1-yl)phenyl]methyl}carbamate]
O=C(Cc1cccc(C(F)(F)F)c1)N(Cc1ccncc1)C1C=CS(=O)(=O)C1 (stereo not shown) [I-536, N-(1,1-dioxo-2,3-dihydro-1lambda6-thiophen-3-yl)-N-[(pyridin-4-yl)methyl]-2-[3-(trifluoromethyl)phenyl]acetamide]
O=C(c1cnn(Cc2ccccc2)c1)N(Cc1ccncc1)C1C=CS(=O)(=O)C1 (stereo not shown) [I-538, 1-benzyl-N-(1,1-dioxo-2,3-dihydro-1lambda6-thiophen-3-yl)-N-[(pyridin-4-yl)methyl]-1H-pyrazole-4-carboxamide]
O=C(C1CCCN(c2ccccc2)C1)N(Cc1ccncc1)C1C=CS(=O)(=O)C1 (stereo not shown) [I-539, N-(1,1-dioxo-2,3-dihydro-1lambda6-thiophen-3-yl)-1-phenyl-N-[(pyridin-4-yl)methyl]piperidine-3-carboxamide]
O=C(Cc1ccc(-n2cccc2)cc1)N(CC12CC(C1)C2)C1C=CS(=O)(=O)C1 (stereo not shown) [I-540, N-({bicyclo[1.1.1]pentan-1-yl}methyl)-N-(1,1-dioxo-2,3-dihydro-1lambda6-thiophen-3-yl)-2-[4-(1H-pyrrol-1-yl)phenyl]acetamide]
COc1ccc2c(CC(=O)N(Cc3ccncc3)C3C=CS(=O)(=O)C3)c[nH]c2c1 (stereo not shown) [I-541, N-(1,1-dioxo-2,3-dihydro-1lambda6-thiophen-3-yl)-2-(6-methoxy-1H-indol-3-yl)-N-[(pyridin-4-yl)methyl]acetamide]
O=C1Cc2ccc(CC(=O)N(Cc3ccncc3)C3C=CS(=O)(=O)C3)cc2N1 (stereo not shown) [I-542, N-(1,1-dioxo-2,3-dihydro-1lambda6-thiophen-3-yl)-2-(2-oxo-2,3-dihydro-1H-indol-6-yl)-N-[(pyridin-4-yl)methyl]acetamide]
O=C(Cc1coc(-c2ccc(F)cc2)n1)N(Cc1ccncc1)C1C=CS(=O)(=O)C1 (stereo not shown) [I-543, N-(1,1-dioxo-2,3-dihydro-1lambda6-thiophen-3-yl)-2-[2-(4-fluorophenyl)-1,3-oxazol-4-yl]-N-[(pyridin-4-yl)methyl]acetamide]
O=C(Cc1cnn(Cc2ccccc2)c1)N(Cc1ccncc1)C1C=CS(=O)(=O)C1 (stereo not shown) [I-544, 2-(1-benzyl-1H-pyrazol-4-yl)-N-(1,1-dioxo-2,3-dihydro-1lambda6-thiophen-3-yl)-N-[(pyridin-4-yl)methyl]acetamide]
O=C(Cc1ccc(-n2cccc2)cc1)N(CC12CCC(CC1)CC2)C1C=CS(=O)(=O)C1 (stereo not shown) [I-545, N-({bicyclo[2.2.2]octan-1-yl}methyl)-N-(1,1-dioxo-2,3-dihydro-1lambda6-thiophen-3-yl)-2-[4-(1H-pyrrol-1-yl)phenyl]acetamide]
N#Cc1ccc2c(CC(=O)N(Cc3ccncc3)C3C=CS(=O)(=O)C3)c[nH]c2c1 (stereo not shown) [I-546, 2-(6-cyano-1H-indol-3-yl)-N-(1,1-dioxo-2,3-dihydro-1lambda6-thiophen-3-yl)-N-[(pyridin-4-yl)methyl]acetamide]
O=C(Cc1csc(-c2ccccc2)n1)N(Cc1ccncc1)C1C=CS(=O)(=O)C1 (stereo not shown) [I-547, N-(1,1-dioxo-2,3-dihydro-1lambda6-thiophen-3-yl)-2-(2-phenyl-1,3-thiazol-4-yl)-N-[(pyridin-4-yl)methyl]acetamide]
CS(=O)(=O)N1CCN(C(C(=O)N(Cc2ccncc2)C2C=CS(=O)(=O)C2)c2ccc(-c3ccc(F)cc3)cc2)CC1 (stereo not shown) [I-548, N-(1,1-dioxo-2,3-dihydro-1lambda6-thiophen-3-yl)-2-{4′-fluoro-[1,1′-biphenyl]-4-yl}-2-(4-methanesulfonylpiperazin-1-yl)-N-[(pyridin-4-yl)methyl]acetamide]
O=C(Cc1ccc(-n2cccc2)cc1)N(C1C=CS(=O)(=O)C1)[C@H]1CCOc2ccccc21 (stereo partly drawn) [I-550, N-[(4S)-3,4-dihydro-2H-1-benzopyran-4-yl]-N-(1,1-dioxo-2,3-dihydro-1lambda6-thiophen-3-yl)-2-[4-(1H-pyrrol-1-yl)phenyl]acetamide]
CN(C)C(=O)CC(C(=O)N(Cc1ccncc1)C1C=CS(=O)(=O)C1)c1ccc(-n2cccc2)cc1 (stereo not shown) [I-551, N-(1,1-dioxo-2,3-dihydro-1lambda6-thiophen-3-yl)-N′,N′-dimethyl-N-[(pyridin-4-yl)methyl]-2-[4-(1H-pyrrol-1-yl)phenyl]butanediamide]
O=C(CC1CCN(c2ccccc2)CC1)N(Cc1ccncc1)C1C=CS(=O)(=O)C1 (stereo not shown) [I-552, N-(1,1-dioxo-2,3-dihydro-1lambda6-thiophen-3-yl)-2-(1-phenylpiperidin-4-yl)-N-[(pyridin-4-yl)methyl]acetamide]
O=C(c1ccncc1)N(CCc1ccc(-n2cccc2)cc1)C1C=CS(=O)(=O)C1 (stereo not shown) [I-553, N-(1,1-dioxo-2,3-dihydro-1lambda6-thiophen-3-yl)-N-{2-[4-(1H-pyrrol-1-yl)phenyl]ethyl}pyridine-4-carboxamide]
CS(=O)(=O)N1CCN(C(C(=O)N(Cc2ccncc2)C2C=CS(=O)(=O)C2)c2ccc(-n3cccc3)cc2)CC1 (stereo not shown) [I-554, N-(1,1-dioxo-2,3-dihydro-1lambda6-thiophen-3-yl)-2-(4-methanesulfonylpiperazin-1-yl)-N-[(pyridin-4-yl)methyl]-2-[4-(1H-pyrrol-1-yl)phenyl]acetamide]
COc1ccc(-c2ccc(CC(=O)N(Cc3ccncc3)C3C=CS(=O)(=O)C3)cc2)cc1 (stereo not shown) [I-555, N-(1,1-dioxo-2,3-dihydro-1lambda6-thiophen-3-yl)-2-{4′-methoxy-[1,1′-biphenyl]-4-yl}-N-[(pyridin-4-yl)methyl]acetamide]
COc1cccc(-c2ccc(CC(=O)N(Cc3ccncc3)C3C=CS(=O)(=O)C3)cc2)c1 (stereo not shown) [I-556, N-(1,1-dioxo-2,3-dihydro-1lambda6-thiophen-3-yl)-2-{3′-methoxy-[1,1′-biphenyl]-4-yl}-N-[(pyridin-4-yl)methyl]acetamide]
O=C(CN1CCN(c2ccccc2)CC1)N(Cc1ccncc1)C1C=CS(=O)(=O)C1 (stereo not shown) [I-557, N-(1,1-dioxo-2,3-dihydro-1lambda6-thiophen-3-yl)-2-(4-phenylpiperazin-1-yl)-N-[(pyridin-4-yl)methyl]acetamide]
O=C(Cc1ccc(-c2nnco2)cc1)N(Cc1ccncc1)C1C=CS(=O)(=O)C1 (stereo not shown) [I-558, N-(1,1-dioxo-2,3-dihydro-1lambda6-thiophen-3-yl)-2-[4-(1,3,4-oxadiazol-2-yl)phenyl]-N-[(pyridin-4-yl)methyl]acetamide]
CC(C)C(=O)NC(Cc1c[nH]c2ccccc12)C(=O)N(Cc1ccncc1)C1C=CS(=O)(=O)C1 (stereo not shown) [I-559, N-(1,1-dioxo-2,3-dihydro-1lambda6-thiophen-3-yl)-3-(1H-indol-3-yl)-2-(2-methylpropanamido)-N-[(pyridin-4-yl)methyl]propanamide]
O=C(CCc1cnc2n1CCCCC2)N(Cc1ccncc1)C1C=CS(=O)(=O)C1 (stereo not shown) [I-560, N-(1,1-dioxo-2,3-dihydro-1lambda6-thiophen-3-yl)-3-{5H,6H,7H,8H,9H-imidazo[1,2-a]azepin-3-yl}-N-[(pyridin-4-yl)methyl]propanamide]
CNC(=O)CC(C(=O)N(Cc1ccncc1)C1C=CS(=O)(=O)C1)c1ccc(-c2ccc(F)cc2)cc1 (stereo not shown) [I-562, N-(1,1-dioxo-2,3-dihydro-1lambda6-thiophen-3-yl)-2-{4′-fluoro-[1,1′-biphenyl]-4-yl}-N′-methyl-N-[(pyridin-4-yl)methyl]butanediamide]
CC(=O)NCC(C(=O)N(Cc1ccncc1)C1C=CS(=O)(=O)C1)c1ccc(-c2ccc(F)cc2)cc1 (stereo not shown) [I-563, N-(1,1-dioxo-2,3-dihydro-1lambda6-thiophen-3-yl)-3-acetamido-2-{4′-fluoro-[1,1′-biphenyl]-4-yl}-N-[(pyridin-4-yl)methyl]propanamide]
O=C(Cc1ccc(N2CCOCC2)cc1)N(Cc1ccncc1)C1C=CS(=O)(=O)C1 (stereo not shown) [I-564, N-(1,1-dioxo-2,3-dihydro-1lambda6-thiophen-3-yl)-2-[4-(morpholin-4-yl)phenyl]-N-[(pyridin-4-yl)methyl]acetamide]
Cn1cc(CCC(=O)N(Cc2ccncc2)C2C=CS(=O)(=O)C2)c2ccc(Br)cc21 (stereo not shown) [I-565, 3-(6-bromo-1-methyl-1H-indol-3-yl)-N-(1,1-dioxo-2,3-dihydro-1lambda6-thiophen-3-yl)-N-[(pyridin-4-yl)methyl]propanamide]
CC1=CC(N(Cc2ccccc2)C(=O)Cc2ccc(-n3cccc3)cc2)CS1(=O)=O (stereo not shown) [I-566, 2-(4-(1H-pyrrol-1-yl)phenyl)-N-benzyl-N-(5-methyl-1,1-dioxido-2,3-dihydrothiophen-3-yl)acetamide]
CN(C)Cc1cccn1-c1ccc(CC(=O)N(Cc2ccccc2)C2C=CS(=O)(=O)C2)cc1 (stereo not shown) [I-567, N-benzyl-2-(4-{2-[(dimethylamino)methyl]-1H-pyrrol-1-yl}phenyl)-N-(1,1-dioxo-2,3-dihydro-1lambda6-thiophen-3-yl)acetamide]
COCc1cccn1-c1ccc(CC(=O)N(Cc2ccccc2)C2C=CS(=O)(=O)C2)cc1 (stereo not shown) [I-568, N-benzyl-N-(1,1-dioxo-2,3-dihydro-1lambda6-thiophen-3-yl)-2-{4-[2-(methoxymethyl)-1H-pyrrol-1-yl]phenyl}acetamide]
